Assays:
HIV-2 (ROD) = assay: Anti-HIV activity in MT-4 cells; assay type: cell-based; conditions: Human immunodeficiency virus 2, MT4, read-out: EC50 ROD
WT HIV-1 RT = WT HIV-1 RT (Human immunodeficiency virus type 1 group M subtype B, UniProt P03366); assay: HIV-1 RT inhibition assay; assay type: biochemical
[1] = Cytotoxicity in uninfected MT-4 cells; assay type: cell-based; conditions: human, uninfected MT-4 cells
HIV-1 RT RNase H = HIV-1 RT RNase H (Human immunodeficiency virus type 1 group M subtype B, UniProt P03366); assay: HIV-1 RT RNase H inhibition; assay type: biochemical

Structure (SMILES)	EC50 (HIV-2 (ROD))	IC50 (WT HIV-1 RT)	CC50 at 4 days [1]	IC50 (HIV-1 RT RNase H)	activity against RNase H (HIV-1 RT RNase H)
Cc1cc(-c2ccc(C#N)cc2)cc(C)c1Oc1nc(Nc2ccc(C#N)cc2)nc(NC2CCOCC2)n1 [Compound 5b, 4ʹ-((4-((4-Cyanophenyl)amino)-6-((tetrahydro-2H-pyran-4-yl)amino)-1,3,5-triazin-2-yl)oxy)-3ʹ,5ʹ-dimethyl-[1,1ʹ-biphenyl]-4-carbonitrile]	2.03 ± 0.94 µM	0.263 µM	> 125 µM	> 1160 µM	–
Cc1cc(-c2ccc(C#N)cc2)cc(C)c1Oc1nc(NCC2CCOC2)nc(Nc2ccc(C#N)cc2)n1 (stereo not shown) [Compound 5c, 4ʹ-((4-((4-Cyanophenyl)amino)-6-(((tetrahydrofuran-3-yl)methyl)amino)-1,3,5-triazin-2-yl)oxy)-3ʹ,5ʹ-dimethyl-[1,1ʹ-biphenyl]-4-carbonitrile]	1.01 ± 0.21 µM	0.216 µM	> 125 µM	> 1160 µM	–
COC(=O)[C@@H]1CCCN1c1nc(Nc2ccc(C#N)cc2)nc(Oc2c(C)cc(-c3ccc(C#N)cc3)cc2C)n1 [Compound 5d, Methyl (4-((4ʹ-cyano-3,5-dimethyl-[1,1ʹ-biphenyl]-4-yl)oxy)-6-((4-cyanophenyl)-amino)-1,3,5-triazin-2-yl)-L-prolinate]	> 2.23 µM	0.273 µM	2.23 ± 1.09 µM	> 1100 µM	–
Cc1cc(-c2ccc(C#N)cc2)cc(C)c1Oc1nc(Nc2ccc(C#N)cc2)nc(N2CCOCC2)n1 [Compound 5e, 4ʹ-((4-((4-Cyanophenyl)amino)-6-morpholino-1,3,5-triazin-2-yl)oxy)-3ʹ,5ʹ-dimeth-yl-[1,1ʹ-biphenyl]-4-carbonitrile]	3.61 ± 0.55 µM	0.195 µM	> 125 µM	659 µM	slight activity
Cc1cc(-c2ccc(C#N)cc2)cc(C)c1Oc1nc(Nc2ccc(C#N)cc2)nc(N2CCNCC2)n1 [Compound 5f, 4ʹ-((4-((4-Cyanophenyl)amino)-6-(piperazin-1-yl)-1,3,5-triazin-2-yl)oxy)-3ʹ,5ʹ-dimethyl-[1,1ʹ-biphenyl]-4-carbonitrile]	> 9.8 µM	0.482 µM	9.8 ± 7.31 µM	> 1190 µM	–
Cc1cc(-c2ccc(C#N)cc2)cc(C)c1Oc1nc(Nc2ccc(C#N)cc2)nc(N2CCCC2CO)n1 (stereo not shown) [Compound 5g, 4ʹ-((4-((4-Cyanophenyl)amino)-6-(2-(hydroxymethyl)pyrrolidin-1-yl)-1,3,5-triazin-2-yl)oxy)-3ʹ,5ʹ-dimethyl-[1,1ʹ-biphenyl]-4-carbonitrile]	1.56 ± 0.49 µM	0.28 µM	> 125 µM	> 1160 µM	–
Cc1cc(-c2ccc(C#N)cc2)cc(C)c1Oc1nc(Nc2ccc(C#N)cc2)nc(N2CCC(O)CC2)n1 [Compound 5i, 4ʹ-((4-((4-Cyanophenyl)amino)-6-(4-hydroxypiperidin-1-yl)-1,3,5-triazin-2-yl)-oxy)-3ʹ,5ʹ-dimethyl-[1,1ʹ-biphenyl]-4-carbonitrile]	1.51 ± 0.26 µM	0.282 µM	14.9 ± 7.89 µM	500 µM	slight activity
Cc1cc(-c2ccc(C#N)cc2)cc(C)c1Oc1nc(NCCN2CCN(C)CC2)nc(Nc2ccc(C#N)cc2)n1 [Compound 5k, 4ʹ-((4-((4-Cyanophenyl)amino)-6-((2-(4-methylpiperazin-1-yl)ethyl)amino)-1,3,5-triazin-2-yl)oxy)-3ʹ,5ʹ-dimethyl-[1,1ʹ-biphenyl]-4-carbonitrile]	> 14.1 µM	0.658 µM	14.1 ± 3.47 µM	> 1070 µM	–
Cc1cc(-c2ccc(C#N)cc2)cc(C)c1Nc1nc(Nc2ccc(C#N)cc2)nc(NC2CC2)n1 [Compound 6a, 4ʹ-((4-((4-Cyanophenyl)amino)-6-(cyclopropylamino)-1,3,5-triazin-2-yl)amino)-3ʹ,5ʹ-dimethyl-[1,1ʹ-biphenyl]-4-carbonitrile]	26.5 µM	0.0741 µM	> 125 µM	> 1270 µM	–
Cc1cc(-c2ccc(C#N)cc2)cc(C)c1Nc1nc(Nc2ccc(C#N)cc2)nc(NC2CCOCC2)n1 [Compound 6c, 4ʹ-((4-((4-Cyanophenyl)amino)-6-((tetrahydro-2H-pyran-4-yl)amino)-1,3,5-triazin-2-yl)amino)-3ʹ,5ʹ-dimethyl-[1,1ʹ-biphenyl]-4-carbonitrile]	40 µM	0.246 µM	> 125 µM	> 1160 µM	–
Cc1cc(-c2ccc(C#N)cc2)cc(C)c1Nc1nc(NCC2CCOCC2)nc(Nc2ccc(C#N)cc2)n1 [Compound 6d, 4ʹ-((4-((4-Cyanophenyl)amino)-6-(((tetrahydro-2H-pyran-4-yl)methyl)amino)-1,3,5-triazin-2-yl)amino)-3ʹ,5ʹ-dimethyl-[1,1ʹ-biphenyl]-4-carbonitrile]	13.8 µM	0.241 µM	> 125 µM	> 1130 µM	–
COC(=O)[C@@H]1CCCN1c1nc(Nc2ccc(C#N)cc2)nc(Nc2c(C)cc(-c3ccc(C#N)cc3)cc2C)n1 [Compound 6f, Methyl (4-((4ʹ-cyano-3,5-dimethyl-[1,1ʹ-biphenyl]-4-yl)amino)-6-((4-cyanophenyl)amino)-1,3,5-triazin-2-yl)-L-prolinate]	> 125 µM	0.253 µM	> 125 µM	> 1100 µM	–
Cc1cc(-c2ccc(C#N)cc2)cc(C)c1Nc1nc(Nc2ccc(C#N)cc2)nc(N2CCOCC2)n1 [Compound 6g, 4ʹ-((4-((4-Cyanophenyl)amino)-6-morpholino-1,3,5-triazin-2-yl)amino)-3ʹ,5ʹ-dimethyl-[1,1ʹ-biphenyl]-4-carbonitrile]	39.9 µM	0.137 µM	> 125 µM	> 1190 µM	–
Cc1cc(-c2ccc(C#N)cc2)cc(C)c1Nc1nc(Nc2ccc(C#N)cc2)nc(N2CCNCC2)n1 [Compound 6h, 4ʹ-((4-((4-Cyanophenyl)amino)-6-(piperazin-1-yl)-1,3,5-triazin-2-yl)amino)-3ʹ,5ʹ-dimethyl-[1,1ʹ-biphenyl]-4-carbonitrile]	> 9.24 µM	0.341 µM	9.24 ± 5.5 µM	> 1200 µM	–
Cc1cc(-c2ccc(C#N)cc2)cc(C)c1Nc1nc(Nc2ccc(C#N)cc2)nc(N2CCCC2CO)n1 (stereo not shown) [Compound 6j, 4ʹ-((4-((4-Cyanophenyl)amino)-6-(2-(hydroxymethyl)pyrrolidin-1-yl)-1,3,5-triazin-2-yl)amino)-3ʹ,5ʹ-dimethyl-[1,1ʹ-biphenyl]-4-carbonitrile]	15.7 µM	0.157 µM	62.9 ± 7.99 µM	> 1160 µM	–
Cc1cc(-c2ccc(C#N)cc2)cc(C)c1Nc1nc(Nc2ccc(C#N)cc2)nc(N2CCC(O)CC2)n1 [Compound 6l, 4ʹ-((4-((4-Cyanophenyl)amino)-6-(4-hydroxypiperidin-1-yl)-1,3,5-triazin-2-yl)-amino)-3ʹ,5ʹ-dimethyl-[1,1ʹ-biphenyl]-4-carbonitrile]	> 5.71 µM	0.223 µM	5.71 ± 3.93 µM	> 1160 µM	–
Cc1cc(-c2ccc(C#N)cc2)cc(C)c1Nc1nc(NCCN2CCOCC2)nc(Nc2ccc(C#N)cc2)n1 [Compound 6m, 4ʹ-((4-((4-Cyanophenyl)amino)-6-((2-morpholinoethyl)amino)-1,3,5-triazin-2-yl)-amino)-3ʹ,5ʹ-dimethyl-[1,1ʹ-biphenyl]-4-carbonitrile]	> 13.9 µM	0.176 µM	13.9 ± 10.7 µM	> 995 µM	–

Source: publication PMC7016291 (Acta Pharmaceutica Sinica. B, 2019)
